Test results as given in PMC10517971, “An inverse agonist of orphan receptor GPR61 acts by a G protein-competitive allosteric mechanism” (Nature Communications, 2023).

Tested on: panel of GPCRs
Assay: GPCR selectivity panel
Format: cell-based
Method: A homogeneous Time-Resolved Fluorescence (HTRF) assay (Perkin Elmer, Dynamic2 kit #) was used to assess receptor basal and inverse agonist activity at human GPR61, GPR62, and GPR101. For routine inverse agonist screening frozen CHO TREx human GPR61, GPR62 and GPR101 cells were used. Cells were thawed, resuspended in complete assay media (DMEM F-12, 10% HI FBS, 100 μg/mL Normocin, 700 μg/mL Hygromycin B and 15 μg/mL Blasticidin) containing 1ug/ml doxycycline, plated in white 384 well plates (Corning, 3570) at a density of 750 cells/well (25 μl/ well) and cultured at 37 °C in an incubator overnight. For studies assessing basal and inverse agonist activity at human GPR61 mutants, CHO-K1 cells were transiently transfected using Fugene6, plated in white 384 well plates (7500 cells/well) and grown overnight at 37 °C, as described for receptor expression studies. […] Data were analyzed using the ratio of fluorescence intensity at 620 and 665 nm for each well, extrapolated from the cAMP standard curve to express data as nM cAMP for each well. […]
7 recepto r activities wer e measured using FL IPR® Calcium Assays. […]
11 measured using a cal cium specific dye. […]
18 change in fluorescence from baseline over a 60 second period (Excitation 470- 495 nm; Emission […]
20 Tetra® instrument to evaluate antagonist activity, with the change in fluorescence from baseline
21 being measured over a 60 second period. […]

In the case of `CCOc1cc(C)nc(N(CCOC)S(=O)(=O)c2ccc(NCc3c(F)cncc3F)nc2OC)n1` [Compound 1], the IC50 (panel of GPCRs, read-out: off-target IC50 values) is reported as over 10 µM and the “selectivity for GPR61” value (panel of common off-target GPCRs and related receptors GPR62 and GPR101) is reported as “selective”.
